Measurements taken from patent publication US20090124651A1, “CATECHOLAMINE DERIVATIVES AND PRODRUGS THEREOF” (H. LUNDBECK A/S, priority 2007, published 2009).

What was measured:
[1] = tested on: motility deficits; test: Superiority model: mouse model of severe dopamine depletion; assay type: in vivo
Text: Both Apomorphine and L-DOPA stimulate D1 and D2-like dopamine receptors.

[2] = man, oral dosing; cited from earlier work
[3] = tested on: Parkinson's disease; details: PD patients, intravenous (IV); cited from earlier work

| SMILES | reversal of motility deficits / restoration of locomotion [1] | oral bioavailability [2] | antiparkinson efficacy [3] |
| --- | --- | --- | --- |
| N[C@@H](Cc1ccc(O)c(O)c1)C(=O)O [L-DOPA, (levo)-3,4-dihydroxy phenylalanine] | able to reverse motility deficits |  |  |
| CN1CCc2cccc3c2[C@H]1Cc1ccc(O)c(O)c1-3 [Apomorphine] | able to reverse motility deficits |  |  |
| CCCc1cc2c(s1)CN[C@@H]1CCc3cc(OC(C)=O)c(OC(C)=O)cc3[C@@H]21 [Adrogolide] |  | ~4% | comparable to that of L-DOPA |
